Key:
[1] = target: T1, 5-HT1A receptor (rat hippocampus) (Rattus norvegicus, UniProt P19327); assay: Radioligand binding assay, serotoninergic 5-HT1A receptors; conditions: binding assay result in %, Table 5a;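 also: test compound at 1 µM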
T1 construct: hippocampus; from tissue; host or cells: rat hippocampus
T1 sequence (P19327 1-422): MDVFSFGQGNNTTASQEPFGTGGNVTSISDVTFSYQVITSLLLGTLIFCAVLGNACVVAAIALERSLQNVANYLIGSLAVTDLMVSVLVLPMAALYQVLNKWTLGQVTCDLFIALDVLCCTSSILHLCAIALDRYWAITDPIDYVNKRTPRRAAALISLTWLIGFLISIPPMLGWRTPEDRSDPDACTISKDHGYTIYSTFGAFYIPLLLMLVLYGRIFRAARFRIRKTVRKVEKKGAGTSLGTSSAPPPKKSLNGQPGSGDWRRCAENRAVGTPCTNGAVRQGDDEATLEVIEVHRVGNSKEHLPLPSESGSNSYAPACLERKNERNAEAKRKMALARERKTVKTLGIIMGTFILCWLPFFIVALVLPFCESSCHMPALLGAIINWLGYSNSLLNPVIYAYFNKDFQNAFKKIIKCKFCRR

σ receptors = assay: Radioligand binding assay, σ receptors; conditions: rat cerebral cortex, [3H]DTG 8 nM
In short: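 Values derive from radioligand displacement, with non-specific binding defined by excess cold ligand and detection by scintillation. Hill-fit IC50s were converted to Ki via Cheng-Prusoff using Scatchard-derived Kd; percent inhibition of control specific binding also reported.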

5-HT2C receptor = target: T2, 5-HT2C receptor (Homo sapiens, UniProt P28335); assay: Radioligand binding assay, serotoninergic 5-HT2C receptors; conditions: test compound 1×10^−6 M
T2 construct: expressed in transfected cells; host or cells: HEK-293 cells
T2 sequence (P28335 33-458): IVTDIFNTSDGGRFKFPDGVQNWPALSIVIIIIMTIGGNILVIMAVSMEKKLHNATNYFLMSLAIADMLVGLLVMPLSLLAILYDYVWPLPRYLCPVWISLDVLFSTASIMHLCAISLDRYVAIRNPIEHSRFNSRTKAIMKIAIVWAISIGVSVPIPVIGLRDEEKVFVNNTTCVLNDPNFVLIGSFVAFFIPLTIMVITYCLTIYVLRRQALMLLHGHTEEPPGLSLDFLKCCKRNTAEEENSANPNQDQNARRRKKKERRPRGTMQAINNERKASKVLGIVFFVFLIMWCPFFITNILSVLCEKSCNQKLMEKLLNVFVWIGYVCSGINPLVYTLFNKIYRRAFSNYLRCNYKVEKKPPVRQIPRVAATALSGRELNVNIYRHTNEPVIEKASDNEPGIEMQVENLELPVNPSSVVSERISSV

5-HT7 receptor = target: T3, 5-HT7 receptor (Homo sapiens, UniProt P34969); assay: Radioligand binding assay, serotoninergic 5-HT7 receptors; conditions: binding assay result in %, Table 5a;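 also: test compound at 1 µM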
T3 construct: purchased PerkinElmer
T3 sequence (P34969 whole entry): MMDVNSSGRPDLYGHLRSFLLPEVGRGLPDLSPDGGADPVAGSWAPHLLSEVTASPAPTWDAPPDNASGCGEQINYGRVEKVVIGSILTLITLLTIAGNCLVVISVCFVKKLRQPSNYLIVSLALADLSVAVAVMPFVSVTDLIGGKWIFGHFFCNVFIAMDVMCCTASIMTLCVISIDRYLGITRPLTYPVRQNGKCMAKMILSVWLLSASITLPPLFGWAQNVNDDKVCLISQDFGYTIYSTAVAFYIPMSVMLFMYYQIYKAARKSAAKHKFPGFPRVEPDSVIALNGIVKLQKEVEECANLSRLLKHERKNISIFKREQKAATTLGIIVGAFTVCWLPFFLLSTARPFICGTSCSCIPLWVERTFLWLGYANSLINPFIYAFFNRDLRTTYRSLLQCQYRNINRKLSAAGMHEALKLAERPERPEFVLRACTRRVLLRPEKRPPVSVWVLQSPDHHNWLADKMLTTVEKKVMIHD
In short: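 Ki values used the Cheng–Prusoff equation, with KD from Scatchard analysis, applied to IC50 from Hill fits of human 5-HT7 radioligand competition curves. Bound radioligand was counted by scintillation, and excess unlabelled ligand set the non-specific binding.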

α2C adrenergic receptors = target: T4, α2C adrenergic receptors (Homo sapiens, UniProt P18825); assay: Radioligand binding assay, adrenergic α2C receptors; conditions: test compound 1×10^−6 M
T4 construct: expressed in transfected cells; host or cells: CHO cells
T4 sequence (P18825 1-462): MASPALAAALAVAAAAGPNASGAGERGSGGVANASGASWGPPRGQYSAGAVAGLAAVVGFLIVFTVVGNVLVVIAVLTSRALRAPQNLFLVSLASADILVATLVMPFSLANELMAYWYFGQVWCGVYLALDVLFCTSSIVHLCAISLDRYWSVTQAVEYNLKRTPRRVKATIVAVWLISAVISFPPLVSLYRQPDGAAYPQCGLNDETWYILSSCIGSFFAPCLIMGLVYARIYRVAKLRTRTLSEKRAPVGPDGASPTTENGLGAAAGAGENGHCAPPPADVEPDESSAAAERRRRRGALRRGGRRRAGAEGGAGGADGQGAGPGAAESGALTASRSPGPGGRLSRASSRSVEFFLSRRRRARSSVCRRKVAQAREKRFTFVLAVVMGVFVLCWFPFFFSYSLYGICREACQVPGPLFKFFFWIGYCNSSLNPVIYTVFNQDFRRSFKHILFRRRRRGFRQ
In short: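 Competitive radioligand binding at human α2C receptors, with scintillation counting. Nonspecific binding defined with excess unlabelled ligand; results given as % inhibition of control specific binding. IC50 from Hill-equation fits of competition curves; Ki via Cheng-Prusoff using radioligand concentration and Scatchard-derived KD.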

Row | SMILES | inhibition at 1 µM [1] [%] | σ [%] (σ receptors) | inhibition at 1 µM (5-HT2C receptor) [%] | inhibition at 1 µM (5-HT7 receptor) [%] | inhibition at 1 µM (α2C adrenergic receptors) [%] | 5-HT1A [%] [1] [%] | 5-HT2C [%] (5-HT2C receptor) | 5-HT7 [%] (5-HT7 receptor) | α2C [%] (α2C adrenergic receptors)
1 | O=S(=O)(NC1CCN(CCCc2noc3cc(F)ccc23)C1)c1cc2ccccc2s1 (stereo not drawn) [Compound 25, N-[1-[3-(6-Fluoro-1,2-benzoxazol-3-yl)propyl]pyrrolidin-3-yl]-benzothiophene-2-sulphonamide] | 74 | 70 | 83 | 98 | 90 |  |  |  | 
2 | Cc1c(S(=O)(=O)NC2CCN(CCCc3noc4cc(F)ccc34)C2)sc2ccc(Cl)cc12 (stereo not drawn) [Compound 29, 5-Chloro-N-[1-[3-(6-fluoro-1,2-benzoxazol-3-yl)propyl]pyrrolidin-3-yl]-3-methyl-benzothiophene-2-sulphonamide] | 70 | 60 | 28 | 52 | 84 |  |  |  | 
3 | Cc1cc(S(=O)(=O)NC2CCN(CCCc3noc4cc(F)ccc34)C2)c(C)s1 (stereo not drawn) [Compound 221, N-[1-[3-(6-Fluoro-1,2-benzoxazol-3-yl)propyl]pyrrolidin-3-yl]-2,5-dimethyl-thiophene-3-sulphonamide] | 67 | 83 | 81 | 95 | 88 |  |  |  | 
4 | O=S(=O)(NC1CCN(CCCc2noc3cc(F)ccc23)C1)c1ccc2cc(Cl)ccc2c1 (stereo not drawn) [Compound 23, 6-Chloro-N-[1-[3-(6-fluoro-1,2-benzoxazol-3-yl)propyl]pyrrolidin-3-yl]naphthalene-2-sulphonamide] | 24 | 61 | 67 | 95 | 89 |  |  |  | 
5 | CC(C)(C)c1ccc(S(=O)(=O)NCC2CN(CCOc3cccc4c3OCCO4)C2)cc1 [Compound 181, 4-tert-Butyl-N-[[1-[2-(2,3-dihydro-1,4-benzodioxin-5-yloxy)ethyl]azetidin-3-yl]methyl]benzenesulphonamide] | 98 | 75 | 93 | 92 | 96 |  |  |  | 
6 | O=S(=O)(NCC1CCN(CCCc2noc3cc(F)ccc23)C1)c1ccc2ccccc2c1 (stereo not drawn) [Compound 240, N-[[1-[3-(6-Fluoro-1,2-benzoxazol-3-yl)propyl]pyrrolidin-3-yl]methyl]-naphthalene-2-sulphonamide] | 30 | 92 | 81 | 90 | 84 |  |  |  | 
7 | O=S(=O)(NCC1CCN(CCCc2noc3cc(F)ccc23)C1)c1ccc(-c2ccccc2)cc1 (stereo not drawn) [Compound 241, N-[[1-[3-(6-Fluoro-1,2-benzoxazol-3-yl)propyl]pyrrolidin-3-yl]methyl]-4-phenyl-benzenesulphonamide] | 39 | 88 | 66 | 100 | 87 |  |  |  | 
8 | CC1(C)Cc2cccc(OCCN3CCC(NS(=O)(=O)c4ccc5ccccc5c4)CC3)c2O1 [Compound 110, N-[1-[2-[(2,2-Dimethyl-3H-benzofuran-7-yl)oxy]ethyl]-4-piperidine]naphthalene-2-sulphonamide] |  | 56 |  |  |  | 95 | 85 | 99 | 98
9 | O=S(=O)(NC1CCN(CCOc2cccc3[nH]ccc23)CC1)c1ccccc1 [Compound 55, N-[1-[2-(1H-Indol-4-yloxy)ethyl]-4-piperidine]benzenesulphonamide] |  | 37 |  |  |  | 96 | 30 | 96 | 99

— patent US20140135310A1, “SULPHONAMIDE DERIVATIVES OF ALICYCLIC AMINES FOR THE TREATMENT OF CENTRAL NERVOUS SYSTEM DISEASES” (Adamed Sp. z o.o., priority 2011, published 2014)
